The compounds below were run on Recombinant human cathepsin A (assay: Cathepsin A inhibitory activity (Bodipy FL-bradykinin substrate, microfluidic capillary electrophoresis)). Details: read-out: CATH A IC50.
Type: biochemical
Description: Pharmacological Tests a) Cathepsin a Inhibitory Activity
Recombinant human cathepsin A (residues 29-480, with a C-terminal 10-His tag; R&D Systems, #1049-SE) was proteolytically activated with recombinant human cathepsin L (R&D Systems, #952-CY). Briefly, cathepsin A was incubated at 10 μg/ml with cathepsin L at 1 μg/ml in activation buffer (25 mM 2-(morpholin-4-yl)-ethanesulfonic acid (MES), pH 6.0, containing 5 mM dithiothreitol (DTT)) for 15 min at 37° C.
The activated cathepsin A was diluted in assay buffer (25 mM MES, pH 5.5, containing 5 mM DTT) and mixed with the test compound (dissolved in assay buffer containing (v/v) 3% DMSO) or, in the control experiments, with the vehicle in a multiple assay plate. After incubation for 15 min at room temperature, as substrate then bradykinin carrying an N-terminal ®Bodipy FL (4,4-difluoro-5,7-dimethyl-4-bora-3a,4a-diaza-s-indacene-3-propionyl) label (JPT Peptide Technologies GmbH; dissolved in assay buffer) was added to the mixture. The final concentration of cathepsin A was 833 ng/ml and the final concentration of labeled bradykinin 2 μM. After incubation for 15 min at room temperature the reaction was stopped by the addition of stop buffer (130 mM 2-(4-(2-hydroxy-ethyl)-piperazin-1-yl)-ethanesulfonic acid, pH 7.4, containing (v/v) 0.013% ®Triton X-100, 0.13% Coating Reagent 3 (Caliper Life Sciences), 6.5% DMSO and 20 μM ebelactone B (Sigma, # E0886)).
Uncleaved substrate and product were then separated by a microfluidic capillary electrophoresis on a LabChip® 3000 Drug Discovery System (12-Sipper-Chip; Caliper Life Sciences) and quantified by determination of the respective peak areas. Substrate turnover was calculated by dividing product peak area by the sum of substrate and product peak areas, and the enzyme activity and the inhibitory effect of the test compound thus quantified.
For `COc1ccc(F)c(F)c1-c1cccc(C(CC(=O)O)c2nccs2)c1` (stereo not drawn) [compound 27], the IC50 was 156 nM.
Work on `COc1ccc(C(C)C)cc1-c1cccc(C(CC(=O)O)c2ncc(C)s2)c1` (stereo not drawn) [compound 56] yielded an IC50 of 97 nM.
`COc1ccc(C)cc1-c1cc(Cl)cc(C(CC(=O)O)c2nnc(C)o2)c1` (stereo not drawn) [compound 169] was tested, and the IC50 was 17 nM.
Compound `COc1cccc(C#N)c1-c1cc(Cl)cc(C(CC(=O)O)c2ncc(C)s2)c1` (stereo not drawn) [compound 88] has an IC50 of 103 nM.
Compound `Cc1nnc(C(CC(=O)O)c2cccc(-c3ccccc3OC(F)(F)F)c2)o1` (stereo not drawn) [compound 148] has an IC50 of 243 nM.
For `COc1ccc(C(C)(C)C)cc1-c1cc(F)cc(C(CC(=O)O)c2ncc(C)s2)c1` (stereo not drawn) [compound 113], the IC50 was 124 nM.
Compound `COc1ccc(Cl)cc1-c1cccc(C(CC(=O)O)c2ncc(C)s2)c1` (stereo not drawn) [compound 62] has an IC50 of 262 nM.
`COc1ccc(-c2cc(C(CC(=O)O)c3nnc(C)o3)cc(C(F)(F)F)c2)c(OC)c1` (stereo not drawn) [compound 211] showed an IC50 of 23 nM.
Compound `COc1ccc(-c2cccc(C(CC(=O)O)c3nnc(C)o3)c2)c(OC)c1` (stereo not drawn) [compound 147] has an IC50 of 137 nM.
Compound `COc1ccc(C(C)(C)C)cc1-c1cccc([C@@H](CC(=O)O)c2ncco2)c1` [compound 11] has an IC50 of 51 nM.
Work on `COc1cc(F)ccc1-c1cc(F)cc(C(CC(=O)O)c2ncc(C)s2)c1` (stereo not drawn) [compound 123] yielded an IC50 of 246 nM.
`COc1ccc(C)cc1-c1cccc(C(CC(=O)O)c2nnc(C)o2)c1` (stereo not drawn) [compound 136] showed an IC50 of 24 nM.
`COc1ccc(C(C)(C)C)cc1-c1cccc(C(CC(=O)O)c2nc(C)c(C)s2)c1` (stereo not drawn) [compound 18] was tested, and the IC50 was 530 nM.
For `COc1ccc(OC(F)(F)F)cc1-c1cccc(C(CC(=O)O)c2nnc(C)o2)c1` (stereo not drawn) [compound 143], the IC50 was 85 nM.
`COc1ccc(F)cc1-c1cccc(C(CC(=O)O)c2ncc(C)s2)c1` (stereo not drawn) [compound 55] showed an IC50 of 96 nM.
Compound `COc1cccc(OC)c1-c1cccc(C(CC(=O)O)c2ncc(C)s2)c1` (stereo not drawn) [compound 51] has an IC50 of 11 nM.
`COc1ccc(C(C)(C)C)cc1-c1cccc(C(CC(=O)O)c2nccs2)c1` (stereo not drawn) [compound 4] was tested, and the IC50 was 119 nM.
Work on `COc1cccc(Cl)c1-c1cc(Cl)cc(C(CC(=O)O)c2ncc(C)s2)c1` (stereo not drawn) [compound 84] yielded an IC50 of 53 nM.
`COc1cccc(OC(C)C)c1-c1cccc(C(CC(=O)O)c2nccs2)c1` (stereo not drawn) [compound 28] was tested, and the IC50 was 165 nM.
With `COc1cc(C)cc(OC)c1-c1cc(C(CC(=O)O)c2nnc(C)o2)cc(C(F)(F)F)c1` (stereo not drawn) [compound 206] the IC50 was 6 nM.
In the case of `COc1ccc(S(C)(=O)=O)cc1-c1cc(C(CC(=O)O)c2nnc(C)o2)cc(C(F)(F)F)c1` (stereo not drawn) [compound 215], the IC50 is reported as 130 nM.
In the case of `COc1ccc(C(C)(C)C)cc1-c1cc(Cl)cc(C(CC(=O)O)c2ncc(C)s2)c1` (stereo not drawn) [compound 85], the IC50 is reported as 55 nM.
Work on `COc1c(Cl)cccc1-c1cc(Cl)cc(C(CC(=O)O)c2ncc(C)s2)c1` (stereo not drawn) [compound 92] yielded an IC50 of 134 nM.
`COc1ccc(OC)c(-c2cccc(C(CC(=O)O)c3nnc(C)o3)c2)c1` (stereo not drawn) [compound 138] was tested, and the IC50 was 41 nM.
With `COc1ccc(C)cc1-c1cncc(C(CC(=O)O)c2nnc(C)o2)c1` (stereo not drawn) [compound 181] the IC50 was 2220 nM.
Compound `COc1ccc(OC)c(-c2cc(Cl)cc(C(CC(=O)O)c3ncc(C)s3)c2)c1OC` (stereo not drawn) [compound 72] has an IC50 of 18 nM.
For `COc1c(-c2cccc(C(CC(=O)O)c3nccs3)c2)cccc1C(F)(F)F` (stereo not drawn) [compound 49], the IC50 was 7000 nM.
Work on `COc1c(F)cc(F)cc1-c1cc(F)cc(C(CC(=O)O)c2ncco2)c1` (stereo not drawn) [compound 129] yielded an IC50 of 457 nM.
Compound `COc1ccc(OC)c(-c2cc(C(CC(=O)O)c3nnc(C)o3)cc(C(F)(F)F)c2)c1` (stereo not drawn) [compound 201] has an IC50 of 14 nM.
Compound `COc1cccc(Cl)c1-c1cccc(C(CC(=O)O)c2nnc(C)o2)c1` (stereo not drawn) [compound 142] has an IC50 of 80 nM.
With `COc1ccc(O)cc1-c1cccc(C(CC(=O)O)c2nccs2)c1` (stereo not drawn) [compound 32] the IC50 was 307 nM.
`COc1cccc(Cl)c1-c1cncc(C(CC(=O)O)c2nnc(C)o2)c1` (stereo not drawn) [compound 199] gave an IC50 of 3560 nM.
In the case of `COc1ccc(C(C)C)cc1-c1cc(F)cc(C(CC(=O)O)c2ncc(C)s2)c1` (stereo not drawn) [compound 119], the IC50 is reported as 195 nM.
In the case of `COc1ccc(-c2cccc(C(CC(=O)O)c3nccs3)c2)c(OC)c1` (stereo not drawn) [compound 29], the IC50 is reported as 185 nM.
For `COc1cccc(C#N)c1-c1cccc(C(CC(=O)O)c2nccs2)c1` (stereo not drawn) [compound 47], the IC50 was 1750 nM.
In the case of `COc1cccc(F)c1-c1cccc(C(CC(=O)O)c2ncc(C)s2)c1` (stereo not drawn) [compound 59], the IC50 is reported as 171 nM.
For `COc1cccc(CO)c1-c1cc(F)cc(C(CC(=O)O)c2nnc(C)o2)c1` (stereo not drawn) [compound 167], the IC50 was 400 nM.
`COc1cccc(Cl)c1-c1cccc(C(CC(=O)O)c2ncc(C)s2)c1` (stereo not drawn) [compound 58] gave an IC50 of 155 nM.
`COc1ccc(C(C)C)cc1-c1cccc(C(CC(=O)O)c2nccs2)c1` (stereo not drawn) [compound 2] showed an IC50 of 132 nM.
`COc1ccc(C)cc1-c1cc(F)cc(C(CC(=O)O)c2ncc(C)s2)c1` (stereo not drawn) [compound 100] gave an IC50 of 52 nM.
`COc1cccc(C(=O)N2CCCC2)c1-c1cc(F)cc(C(CC(=O)O)c2nnc(C)o2)c1` (stereo not drawn) [compound 174] showed an IC50 of 5260 nM.
`COc1ccc(F)c(F)c1-c1cc(Cl)cc(C(CC(=O)O)c2ncc(C)s2)c1` (stereo not drawn) [compound 78] was tested, and the IC50 was 37 nM.
`COc1ccc(S(C)(=O)=O)cc1-c1cc(F)cc(C(CC(=O)O)c2nnc(C)o2)c1` (stereo not drawn) [compound 178] showed an IC50 of 588 nM.
With `COc1ccc(C(C)C)cc1-c1cc(C(CC(=O)O)c2nnc(C)o2)cc(C(F)(F)F)c1` (stereo not drawn) [compound 204] the IC50 was 31 nM.
In the case of `COc1ccc(Cl)cc1-c1cccc(C(CC(=O)O)c2nnc(C)o2)c1` (stereo not drawn) [compound 50], the IC50 is reported as 108 nM.
`COc1ccc(Cl)cc1-c1cncc(C(CC(=O)O)c2nnc(C)o2)c1` (stereo not drawn) [compound 191] gave an IC50 of 3910 nM.
Compound `O=C(O)CC(c1cc(F)cc(-c2ccccc2OC(F)(F)F)c1)c1ncco1` (stereo not drawn) [compound 130] has an IC50 of 466 nM.
For `COc1cccc(OC)c1-c1cc(Cl)cc(C(CC(=O)O)c2nnc(C)o2)c1` (stereo not drawn) [compound 154], the IC50 was 5 nM.
Compound `COc1cccc(-c2cccc(C(CC(=O)O)c3nccs3)c2)c1OC` (stereo not drawn) [compound 41] has an IC50 of 950 nM.
`COc1ccc(Cl)cc1-c1cc(C(CC(=O)O)c2nnc(C)o2)cc(C(F)(F)F)c1` (stereo not drawn) [compound 209] was tested, and the IC50 was 17 nM.
Work on `COc1ccc(Cl)cc1-c1ccc(OC)c(C(CC(=O)O)c2ncc(C)s2)c1` (stereo not drawn) [compound 65] yielded an IC50 of 3050 nM.
For `COc1ccccc1-c1ccc(OC)c(C(CC(=O)O)c2ncc(C)s2)c1` (stereo not drawn) [compound 66], the IC50 was 4410 nM.
`COc1ccc(C)cc1-c1cc(Cl)cc(C(CC(=O)O)c2ncc(C)s2)c1` (stereo not drawn) [compound 81] showed an IC50 of 52 nM.
`COc1ccc(OC)c(-c2cccc(C(CC(=O)O)c3ncc(C)s3)c2)c1` (stereo not drawn) [compound 54] was tested, and the IC50 was 94 nM.
In the case of `COc1ccccc1-c1cc(C(CC(=O)O)c2nnc(C)o2)cc(C(F)(F)F)c1` (stereo not drawn) [compound 217], the IC50 is reported as 13 nM.
For `COc1ccc(F)cc1-c1cc(Cl)cc(C(CC(=O)O)c2ncc(C)s2)c1` (stereo not drawn) [compound 79], the IC50 was 38 nM.
`COc1ccc(S(C)(=O)=O)cc1-c1cccc(C(CC(=O)O)c2nnc(C)o2)c1` (stereo not drawn) [compound 149] showed an IC50 of 265 nM.
With `COC(=O)c1ccc(OC)c(-c2cccc(C(CC(=O)O)c3nccs3)c2)c1` (stereo not drawn) [compound 23] the IC50 was 140 nM.
In the case of `COc1cccc(OC)c1-c1cc(Cl)cc(C(CC(=O)O)c2ncc(C)s2)c1` (stereo not drawn) [compound 10], the IC50 is reported as 7 nM.
With `Cc1nnc(C(CC(=O)O)c2cc(-c3ccccc3OC(F)(F)F)cc(C(F)(F)F)c2)o1` (stereo not drawn) [compound 208] the IC50 was 65 nM.
`COc1ccc(C(C)(C)C)cc1-c1cccc(C(CC(=O)O)c2ncco2)c1` (stereo not drawn) [compound 13] showed an IC50 of 103 nM.
Compound `COc1cccc(CO)c1-c1cccc(C(CC(=O)O)c2nnc(C)o2)c1` (stereo not drawn) [compound 150] has an IC50 of 325 nM.
`COc1cccc(Cl)c1-c1cccc(C(CC(=O)O)c2nccs2)c1` (stereo not drawn) [compound 31] gave an IC50 of 292 nM.
Work on `COc1ccc(CO)cc1-c1cc(C(CC(=O)O)c2nnc(C)o2)cc(C(F)(F)F)c1` (stereo not drawn) [compound 221] yielded an IC50 of 22 nM.
`COc1ccc(CO)cc1-c1cc(Cl)cc(C(CC(=O)O)c2ncc(C)s2)c1` (stereo not drawn) [compound 77] gave an IC50 of 29 nM.
With `COc1cc(C)cc(OC)c1-c1cccc(C(CC(=O)O)c2ncc(C)s2)c1` (stereo not drawn) [compound 15] the IC50 was 44 nM.
`COc1ccc(C#N)cc1-c1cccc(C(CC(=O)O)c2nccs2)c1` (stereo not drawn) [compound 39] gave an IC50 of 618 nM.
Work on `COc1cccc(OC)c1-c1cc(C(CC(=O)O)c2nnc(C)o2)cc(C(F)(F)F)c1` (stereo not drawn) [compound 205] yielded an IC50 of 2 nM.
With `COc1cc(C(N)=O)ccc1-c1cc(Cl)cc(C(CC(=O)O)c2ncc(C)s2)c1` (stereo not drawn) [compound 89] the IC50 was 118 nM.
Work on `COc1c(C)cccc1-c1cc(C(CC(=O)O)c2nnc(C)o2)cc(C(F)(F)F)c1` (stereo not drawn) [compound 220] yielded an IC50 of 53 nM.
With `COc1ccc(C(F)(F)F)cc1-c1cccc(C(CC(=O)O)c2nccs2)c1` (stereo not drawn) [compound 22] the IC50 was 134 nM.
`COc1cccc(C(=O)N2CCCC2)c1-c1cc(C(CC(=O)O)c2nnc(C)o2)cc(C(F)(F)F)c1` (stereo not drawn) [compound 216] was tested, and the IC50 was 1460 nM.
`COc1ccc(C(C)C)cc1-c1cccc([C@H](CC(=O)O)c2nnc(C)o2)c1` [compound 108] gave an IC50 of 6260 nM.
Compound `CC(C)Oc1ccccc1-c1cccc(C(CC(=O)O)c2nccs2)c1` (stereo not drawn) [compound 35] has an IC50 of 409 nM.
In the case of `COc1ccc(OC(F)(F)F)cc1-c1cc(C(CC(=O)O)c2nnc(C)o2)cc(C(F)(F)F)c1` (stereo not drawn) [compound 213], the IC50 is reported as 51 nM.
